Measured values: patent publication US9206186B2, “2-phenoxy- and 2-phenylsulfonamide derivatives with CCR3 antagonistic activity for the treatment of inflammatory or immunological disorders” (AXIKIN PHARMACEUTICALS, INC., priority 2003, dated 2015)
Structures can show the parent of a compound that is named as a salt.

What was measured:
[1] = target: T1, Human CCR3 (Homo sapiens, UniProt P51677); assay: Calcium mobilization assay (Ca2+), eotaxin-stimulated human CCR3-transformed K562 cells; assay type: cell-based; conditions: compounds of about 40 to 90% purity, read-out: Activity grade IC50
T1 construct: The cloned CCR3 cDNA was constructed with pcDNA3 vector and transfected into a K562 cell line; expressed in transfected cells
T1 sequence (P51677 1-355): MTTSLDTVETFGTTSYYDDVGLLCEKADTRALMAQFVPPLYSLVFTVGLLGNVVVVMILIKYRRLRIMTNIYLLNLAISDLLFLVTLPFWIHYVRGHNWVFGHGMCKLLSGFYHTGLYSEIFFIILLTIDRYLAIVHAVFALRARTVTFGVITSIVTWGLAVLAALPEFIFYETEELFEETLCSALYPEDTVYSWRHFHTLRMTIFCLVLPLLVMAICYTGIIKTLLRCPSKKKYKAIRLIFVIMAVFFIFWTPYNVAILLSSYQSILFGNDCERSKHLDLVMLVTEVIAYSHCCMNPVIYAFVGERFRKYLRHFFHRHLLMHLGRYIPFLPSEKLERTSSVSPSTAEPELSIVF
Protocol: • Human CCR3-transformed K562 cells were used. The cloned CCR3 cDNA was constructed with pcDNA3 vector and transfected into a K562 cell line. The human CCR3-transformed K562 cells were maintained in RPMI-1640 (Cat.#22400-089, Life Technologies) supplemented with 10% FCS (Cat.#A-1115-L, Hyclone), 55 μM 2-mercaptoethanol (Cat.#21985-023, Life Technologies), 1 mM sodium pyruvate (Cat.#11360-070, Life Technologies), 100 units/ml of penicillin G and 100 μg/ml of streptomycin (Cat.#15140-122, Life Technologies), and 0.4 mg/ml of Geneticin (Cat.#10131-035, Life Technologies) (hereinafter called “culture medium”). Before the receptor binding assay, cells were pretreated with 5 mM sodium butyrate (Cat.#193-01522, Wako)-containing the culture medium (2×10^5 cells/ml) for 20-24 hours to increase the expression of CCR3. (2) Receptor Binding Assay • Butyrate-pretreated cells, suspended in binding buffer (25 mM HEPES pH 7.6, 1 mM CaCl2, 5 mM MgCl2, 0.5% BSA, 0.1% NaN3) at a cell density of 2×10^6 cells/ml, were added into 60 μl/well in the 96-well round bottom polypropylene plate (Cat.#3365, Costar). Compounds, diluted with the binding buffer (4-times higher concentration of the final concentration), were added into 30 μl/well in the polypropylene plate. [^125I]-labeled human eotaxin (Cat.#IM290, Amersham Pharmacia Biotech), diluted with the binding buffer at the concentration of 0.4 nM (final concentration; 0.1 nM), was added into 30 μl/well in the polypropylene plate. Total 120 μl/well of binding reaction mixture (60 μl/well of cell suspension, 30 μl/well of compound solution, and 30 μl/well of [^125I]-labeled eotaxin) were incubated in the polypropylene plate for 1 hour at room temperature after the incubation, 100 μl/well of the reaction mixture was transferred to a filtration plate (Cat.#MAFB-N0B, Millipore), and washed with the washing buffer (25 mM HEPES pH 7.6, 1 mM CaCl2, 5 mM MgCl2, 0.5% BSA, 0.1% NaN3, 0.5 M NaCl) twice. The 96-well filtration plate was pretreated with 100 μl/well of 0.5% polyethylenimine (Cat.#P-3143, Sigma) for 2-4 hours at room temperature and washed with the washing buffer twice before use. The non-specific binding was determined by parallel incubation in the presence of 500 nM of non-labeled eotaxin (Cat.#23209, Genzyme Techne). The radioactivities remained on the filter were measured by liquid scintillation counter (TopCount™, Packard) after an addition of 45 μl/well of scintillant (Microscint20, Cat.#6013621, Packard). The inhibition percent at each concentration of compound was calculated, and IC50 values were determined from the inhibition curve. [Determination of IC50 Values of Compounds in Calcium Mobilization Assay] (1) Cell • Human CCR3-transformed K562 cells were used. The human CCR3-transformed K562 cells were maintained in RPMI-1640 supplemented with 10% FCS, 55 μM 2-mercaptoethanol (Cat.#21985-023, Life Technologies), 1 mM sodium pyruvate, 100 units/ml of penicillin G and 100 μg/ml of streptomycin, and 0.4 mg/ml of Geneticin. Before the calcium mobilization assay, cells were pretreated with 5 mM sodium butyrate-containing the culture medium (2×10^5 cells/ml) for 20-24 hours to increase the expression of CCR3. (2) Calcium Mobilization Assay • Butyrate-pretreated cells were loaded with Fluo-3AM (Cat.#F-1242, Molecular Probes) in loading buffer (Hanks' solution Cat.#05906 Nissui, 20 mM HEPES pH 7.6, 0.1% BSA, 1 mM probenecid Cat.#P-8761 Sigma, 1 μM Fluo-3AM, 0.01% pluronic F-127 Cat.#P-6866 Molecular Probes) at a cell density of 1×10^7 cells/ml. Then, cells were washed with calcium assay buffer (Hanks' solution Cat.#05906 Nissui, 20 mM HEPES pH 7.6, 0.1% BSA, 1 mM Probenecid Cat.#P-8761 Sigma). The cell suspension (3.3×10^6 cells/ml) was added into 60 μl/well in the 96-well clear bottom black plate (Cat.#3904, Costar). Compounds, diluted (5-times concentration of the final concentration) with the calcium assay buffer, were added into 20 μl/well in the plate 10 minutes before assay. […]

Structure (SMILES) | IC50 [1] [nM] | melting point
N#Cc1ccc(Oc2cc(Cl)cc(Cl)c2)c(S(=O)(=O)N[C@H]2CN3CCC2CC3)c1 [Example 1-1, N—(R)-(+)-(1-aza-bicyclo[2.2.2]oct-3-yl)-5-cyano-2-(3,5-dichloro-phenoxy)-benzenesulfonamide] | < 100 | –
CN(C)CCN(CCN1C(=O)CCC1=O)S(=O)(=O)c1cc(C#N)ccc1Oc1cc(Cl)cc(Cl)c1 [Example 1-2, 5-cyano-2-(3,5-dichloro-phenoxy)-N-(2-dimethylamino-ethyl)-N-[2-(2,5-dioxo-pyrrolidin-1-yl)-ethyl]-benzenesulfonamide] | < 100 | –
N#Cc1ccc(Oc2cc(Cl)cc(Cl)c2)c(S(=O)(=O)N2CCN[C@@H](Cc3c[nH]c4ccccc34)C2)c1 [Example 1-3, 4-(3,5-dichloro-phenoxy)-3-[(3S)-(1H-indol-3-ylmethyl)-piperazine-1-sulfonyl]-benzonitrile] | < 100 | –
N#Cc1ccc(Oc2cc(Cl)cc(Cl)c2)c(S(=O)(=O)N2CCNCC2Cn2cncn2)c1 (stereo not shown) [Example 1-4, 4-(3,5-dichlorophenoxy)-3-{[2-(1H-1,2,4-triazol-1-ylmethyl)-1-piperazinyl]sulfonyl}benzonitrile hydrochloride] | < 100 | –
N#Cc1ccc(Oc2cc(Cl)cc(Cl)c2)c(S(=O)(=O)N2CCCCC2)c1 [Example 1-5] | > 500 | 171 to 172 °C
N#Cc1ccc(Oc2cc(Cl)cc(Cl)c2)c(S(=O)(=O)N2CC3CCN(Cc4ccccc4)C3C2)c1 (stereo not shown) [Example 1-6] | < 100 | –
CS(=O)(=O)NCC1CN(S(=O)(=O)c2cc(C#N)ccc2Oc2cc(Cl)cc(Cl)c2)CCN1 (stereo not shown) [Example 1-7] | < 100 | –
CC(=O)NCC1CN(S(=O)(=O)c2cc(C#N)ccc2Oc2cc(Cl)cc(Cl)c2)CCN1 (stereo not shown) [Example 1-8] | < 100 | –
CS(=O)(=O)NCC1CNCCN1S(=O)(=O)c1cc(C#N)ccc1Oc1cc(Cl)cc(Cl)c1 (stereo not shown) [Example 1-9] | < 100 | –
CC(=O)NCC1CNCCN1S(=O)(=O)c1cc(C#N)ccc1Oc1cc(Cl)cc(Cl)c1 (stereo not shown) [Example 1-10] | < 100 | –
N#Cc1ccc(Oc2cc(Cl)cc(Cl)c2)c(S(=O)(=O)N2CCC(N3C[C@H](O)[C@@H](O)C3)CC2)c1 [Example 1-11] | < 100 | 137 to 139 °C
COC(=O)C1CN(S(=O)(=O)c2cc(C#N)ccc2Oc2cc(Cl)cc(Cl)c2)CCCN1 (stereo not shown) [Example 1-12] | 100 to 500 | –
COC(=O)[C@@H]1C[C@H](N2CCCC2)CN1S(=O)(=O)c1cc(C#N)ccc1Oc1cc(Cl)cc(Cl)c1 [Example 1-13] | < 100 | –
N#Cc1ccc(Oc2cc(Cl)cc(Cl)c2)c(S(=O)(=O)N2CC[C@H](NCCO)C2)c1 [Example 1-16] | < 100 | 155 to 156 °C
COC(=O)C1CNCCCN1S(=O)(=O)c1cc(C#N)ccc1Oc1cc(Cl)cc(Cl)c1 (stereo not shown) [Example 1-22] | < 100 | –
N#Cc1ccc(Oc2cc(Cl)cc(Cl)c2)c(S(=O)(=O)N2CCNC[C@@H]2Cc2c[nH]c3ccccc23)c1 [Example 1-26] | < 100 | 116 to 117 °C
N#Cc1ccc(Oc2cc(Cl)cc(Cl)c2)c(S(=O)(=O)N2CCNCC2CN2C(=O)CCC2=O)c1 (stereo not shown) [Example 1-27] | < 100 | –

Structure (SMILES) | IC50 [1] [nM] | melting point
CS(=O)(=O)NCC1CN(S(=O)(=O)c2cc(C#N)ccc2Oc2cc(Cl)cc(Cl)c2)CCCN1 (stereo not shown) [Example 1-28] | < 100 | –
CS(=O)(=O)NCC1CNCCCN1S(=O)(=O)c1cc(C#N)ccc1Oc1cc(Cl)cc(Cl)c1.Cl (stereo not shown) [Example 1-29] | < 100 | 183 to 184 °C
CC(=O)c1ccc(Oc2cc(Cl)cc(Cl)c2)c(S(=O)(=O)N2CCNCC2)c1 [Example 1-31] | < 100 | 169 to 170 °C
N#Cc1ccc(Oc2cc(Cl)cc(Cl)c2)c(S(=O)(=O)N[C@@H]2CN3CCC2CC3)c1 [Example 1-32] | < 100 | –
N#Cc1ccc(Oc2cc(Cl)cc(Cl)c2)c(S(=O)(=O)N2CCC(N3CCC[C@H]3C(=O)O)CC2)c1 [Example 1-33] | 100 to 500 | 224 to 225 °C
CC(C)(O)[C@@H]1CCCN1C1CCN(S(=O)(=O)c2cc(C#N)ccc2Oc2cc(Cl)cc(Cl)c2)CC1 [Example 1-34] | < 100 | 103 °C
N#Cc1ccc(Oc2cc(Cl)cc(Cl)c2)c(S(=O)(=O)N2CCCCC2CN2CCC(O)C2)c1 (stereo not shown) [Example 1-35] | < 100 | –
N#Cc1ccc(Oc2cc(Cl)cc(Cl)c2)c(S(=O)(=O)N2CCNC(Cn3ncnn3)C2)c1 (stereo not shown) [Example 1-36] | < 100 | –
Cl.N#Cc1ccc(Oc2cc(Cl)cc(Cl)c2)c(S(=O)(=O)N2CCNC(Cn3cncn3)C2)c1 (stereo not shown) [Example 1-37] | < 100 | 184 to 185 °C (dec.)
CCN1CCCN(S(=O)(=O)c2cc(C#N)ccc2Oc2cc(Cl)cc(Cl)c2)C(C(=O)OC)C1 (stereo not shown) [Example 1-39] | < 100 | –
N#Cc1ccc(Oc2cc(Cl)cc(Cl)c2)c(S(=O)(=O)N(CCN2CCCC2)C2CCCC2)c1 [Example 1-42] | < 100 | –
N#Cc1ccc(Oc2cc(Cl)cc(Cl)c2)c(S(=O)(=O)N2CCNC(CN3C(=O)CCC3=O)C2)c1 (stereo not shown) [Example 1-43] | < 100 | 123 to 125 °C
N#Cc1ccc(Oc2cc(Cl)cc(Cl)c2)c(S(=O)(=O)N2CCC(N3CCCC3)C(CN3C(=O)CCC3=O)C2)c1 (stereo not shown) [Example 1-44] | < 100 | 121 °C
N#Cc1ccc(Oc2cc(Cl)cc(Cl)c2)c(S(=O)(=O)N2CCC(N3CCC[C@H]3CO)CC2)c1 [Example 1-45] | < 100 | 124 °C
N#Cc1ccc(Oc2cc(Cl)cc(Cl)c2)c(S(=O)(=O)N2CCC[C@H]2CN2CCC[C@H]2CO)c1 [Example 1-46] | < 100 | 157 °C
N#Cc1ccc(Oc2cc(Cl)cc(Cl)c2)c(S(=O)(=O)C2CCNCC2)c1 [Example 2-1, 4-(3,5-Dichloro-phenoxy)-3-(piperidine-4-sulfonyl)-benzonitrile] | > 500 | –
